From patent US9688637B2, “3-amidobenzamides and uses thereof for increasing cellular levels of A3G and other A3 family members” (Northwestern University, priority 2014, dated 2017)

What was measured:
Type in all cases: cell-based
293T cells = experiment: Cellular cytotoxicity by counting cells after 48 hrs with compound vs DMSO; settings: concentration at which cell death was seen; 48 hrs
Procedure: To screen compounds that can boost A3G levels, 293T cells (25,000 cells per well in 96-well plate) stably expressing A3G-Luc protein or A3G-Luc/Vif proteins were plated. After 24 hrs post plating culture medium was replaced with 100 μl of new medium containing either DMSO as a control or various compounds (10 μM concentration). After 48 hrs of incubation with compounds culture medium was removed from each well and replaced with 100 μl of Britelite Plus luciferase assay substrate (PerkinElmer). Following 5 min. of incubation at room temperature, 75 μl of each cell lysate was transferred to a 96-well OptiPlate 96 (PerkinElmer) and luminescence was measured in a VICTOR X2 Multilabel Reader (PerkinElmer). Relative activity of compounds for their boosting capability A3G-Luc activity was calculated by plotting DMSO-treated A3G-Luc or A3G-Luc/Vif cells as 100%. Cellular cytotoxicity was measured by counting number of cells after 48 hrs of incubation with compounds compared to DMSO treated cells.

mutant Y124A A3G = biological target: T1, mutant Y124A A3G (Homo sapiens, UniProt Q9HC16, Y124A); experiment: Steady state A3 protein level by immunoblot in transiently transfected 293T cells; settings: 293T transiently transfected, immunoblot (FIG. 7)
T1 construct: expressed in transfected cells; host or cells: 293T, transient transfection
Procedure: (§1) FIG. 7. 293T cells were transiently transfected with 400 ng of expression vectors for wild type A3G (A3G), a mutant A3G (A3G Y124A), and A3F (A3F) to test effect of NU52 treatment on steady state levels of the respective A3 protein, as detected by immunoblotting with respective antibodies, with GAPDH as loading control.

wild type A3F = biological target: T2, wild type A3F (Homo sapiens, UniProt Q8IUX4); experiment: as above; settings: 293T transiently transfected, immunoblot (FIG. 7)
T2 construct: expressed in transfected cells; host or cells: 293T, transient transfection
Procedure: as §1

wild type A3G = biological target: T3, wild type A3G (Homo sapiens, UniProt Q9HC16); experiment: as above; settings: 293T transiently transfected, immunoblot (FIG. 7)
T3 construct: expressed in transfected cells; host or cells: 293T, transient transfection
Procedure: as §1

T3 sequence (Q9HC16 whole entry): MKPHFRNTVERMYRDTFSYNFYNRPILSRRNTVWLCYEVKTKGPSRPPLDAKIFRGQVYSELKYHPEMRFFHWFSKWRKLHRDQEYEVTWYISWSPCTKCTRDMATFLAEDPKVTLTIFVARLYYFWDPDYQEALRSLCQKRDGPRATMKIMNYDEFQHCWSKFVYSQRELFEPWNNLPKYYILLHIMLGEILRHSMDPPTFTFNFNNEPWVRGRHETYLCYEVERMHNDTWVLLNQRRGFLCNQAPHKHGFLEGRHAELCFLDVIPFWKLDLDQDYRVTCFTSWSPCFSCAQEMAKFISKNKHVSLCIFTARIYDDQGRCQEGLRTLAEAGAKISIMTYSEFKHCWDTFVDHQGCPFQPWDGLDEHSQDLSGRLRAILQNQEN
T2 sequence (Q8IUX4 whole entry): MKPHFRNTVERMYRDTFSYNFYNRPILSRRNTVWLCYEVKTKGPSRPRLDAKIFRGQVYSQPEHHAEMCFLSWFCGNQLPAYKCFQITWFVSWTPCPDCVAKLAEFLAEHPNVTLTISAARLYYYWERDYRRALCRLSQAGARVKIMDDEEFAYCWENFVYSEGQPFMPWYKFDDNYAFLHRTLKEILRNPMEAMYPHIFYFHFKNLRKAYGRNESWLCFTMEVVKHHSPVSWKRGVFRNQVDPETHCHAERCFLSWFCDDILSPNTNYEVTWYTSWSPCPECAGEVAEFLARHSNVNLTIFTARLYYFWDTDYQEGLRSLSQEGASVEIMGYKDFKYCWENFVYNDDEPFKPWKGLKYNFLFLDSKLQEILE
T1 sequence (Q9HC16 whole entry Y124A): as the sequence (Q9HC16 whole entry) above, with Y124A counted along it

COc1ccc(C(=O)Nc2ccc(Cl)c(Cl)c2)cc1NC(=O)C(C)C [NU-52]
Cytotoxicity: Cell Death at (293T cells): Cell Death at 30 μM | expression of mutant Y124A A3G (mutant Y124A A3G): increased | expression of wild type A3F (wild type A3F): increased | expression of wild type A3G (wild type A3G): increased
